Experimental data taken from patent US8232253B2, “Treatment of lung cancer” (Ramot at Tel-Aviv University Ltd., priority 2006, dated 2012).

Key:
A549 cells [1] = assay: Cell growth by direct cell counting; format: cell-based; settings: Homo sapiens, A549, 144 h, cells grown 6 days with FTS, read-out: FTS concentration giving a decrease of 50% in A549 cell growth
Protocol: FTS was provided by Concordia Pharmaceuticals, Inc. (Ft. Lauderdale, Fla.). All cell lines were obtained from American Type Culture Collection (“ATCC”) (Manassas, Va.). A549 cells, non-small-cell lung carcinoma (CCL, ATCC) cells, were cultured in Kaighn's modification of Ham's F-12 medium containing 1.5 g/l sodium bicarbonate, 10% fetal calf serum (FCS), 100 U/ml penicillin, and 100 μg/ml streptomycin. HTB54 lung carcinoma cells were cultured in McCoy's 5A medium with 10% FCS, 100 U/ml penicillin, and 10 μg/ml streptomycin. […] Cells were treated with the indicated concentrations of FTS (Concordia Pharmaceuticals, Sunrise Fla.) or with 0.1% Me2SO4 (DMSO) (vehicle) 24 h after plating and were counted 5 days later. Dead cells were counted after addition of Hoechst 33258 dye (Sigma-Aldrich, St. Louis, Mo.); 1 μg/ml) to vehicle-treated control cultures or to cultures treated for 24 or 48 h with 75 μM FTS. Fluorescence images were collected 5 min after the dye was added.
To investigate the effect of FTS on lung cancer cell proliferation, we first incubated A549 cells that harbor the activated K-ras gene mutated at codon 12. […] The number of cells in the FTS-treated cultures was determined by direct counting of A549 cells grown for 6 days in the presence of FTS and was expressed as a percentage of the number recorded in the controls. […]

K-Ras-GTP = biological target: T1, K-Ras-GTP (Homo sapiens, UniProt P01116, G12S); assay: K-Ras-GTP GST-RBD pull-down assay and immunoblotting in A549 cells; format: cell-based
T1 construct: endogenous in cells; host or cells: A549 (ATCC)
T1 sequence (P01116 whole entry G12S): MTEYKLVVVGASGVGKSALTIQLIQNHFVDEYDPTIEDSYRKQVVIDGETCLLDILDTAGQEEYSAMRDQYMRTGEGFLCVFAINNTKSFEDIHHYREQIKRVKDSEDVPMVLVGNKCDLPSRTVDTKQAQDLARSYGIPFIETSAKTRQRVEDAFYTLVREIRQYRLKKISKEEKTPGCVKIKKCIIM
Protocol: A549 cells were incubated for 24 or 48 h with or without FTS, as described above, and then lysed with lysis buffer as described in Haklai, R., Gana-Weisz, M., Elad, G., et al., Biochemistry 37:1306-14 (1998). The apparent amounts of K-Ras-GTP in 0.5 mg protein of total cell lysates were determined by the glutathione-S-transferase (GST)-RBD (Ras-binding domain of Raf) pull-down assay, as described in (Elad-Sfadia, G., Haklai, R., Ballan, E., Gabius, H. J., Kloog, Y., J Biol Chem 277:37169-75 (2002). The apparent amounts of Rac1-GTP and of RhoA-GTP, each in 2 mg protein of total cell lysates, were determined, respectively, by pull-down assays with GST-PBD (Rac1-binding domain of PAK1)-conjugated and GST-Rhotekin BD (Rho-binding domain of Rhotekin)-conjugated beads [Benard, V., Bohl, B. P., Bokoch, G. M, J Biol Chem 274:13198-204 (1999); Fiordalisi, J. J., Keller, P. J., Cox, A. D., Cancer Res 66:3153-61 (2006). The pulled-down GTPases were subjected to SDS-PAGE followed by immunoblotting with the appropriate antibodies: anti K-Ras (1:30; Calbiochem, La Jolla, Calif.), anti Rac-1 (1:2500; Santa Cruz Biotechnology, Santa Cruz, Calif.), or anti RhoA (1:700; Upstate Biotechnology, Lake Placid, N.Y.). Immunoblots were exposed to 1:2500 peroxidase-goat anti-mouse IgG. Levels of phospho-ERK and phospho-Akt were determined by immunoblotting [Haklai, R., Gana-Weisz, M., Elad, G., et al., supra.] using rabbit anti phospho-ERK1/2 Ab (Santa Cruz Biotechnology, Santa Cruz, Calif.) and rabbit anti phospho-Akt Ab (Cell Signaling, Beverly, Mass.). Protein bands were visualized by enhanced chemiluminescence and quantified by densitometry using ImageJ computer software (National institutes of Health, Bethesda, Md.).
To determine whether active K-Ras-GTP and its prominent downstream signals to ERK and Akt were inhibited in A549 cells, and if so, whether the […] growth of the cells was also affected, two experiments were performed. First, A549 cells were incubated in the absence and in the presence of various concentrations of FTS and K-Ras-GTP, phospho-ERK and phospho-Akt levels were measured.

A549 cells [2] = assay: FACS analysis of cell cycle (propidium iodide); format: cell-based, human; settings: for apoptotic population of cells (sub-G1): 75 μM FTS; for reduction in G1 population: FTS
Protocol: A549 cells were plated (9×10^5 cells) in 10-cm plates, incubated for 24 h in medium containing 5% FCS, and then incubated for 24 or 48 h with or without 75 μM FTS. The cells were collected, resuspended in PBS containing propidium iodide (50 μg/ml; Sigma) and 0.05% Triton X-100, and subjected to analysis by a fluorescence-activated cell sorter (FACSCalibur; Becton Dickinson, Los Angeles, Calif.).
To investigate the effect of FTS on lung cancer cell proliferation, we first incubated A549 cells that harbor the activated K-ras gene mutated at codon 12. A549 cells are commonly used as a model for drug screening. […] Increasing concentration of FTS inhibited A549 cell growth at a dose dependent rate, with a decrease of 50% at 40 μM FTS. The number of cells in the FTS-treated cultures was determined by direct counting of A549 cells grown for 6 days in the presence of FTS and was expressed as a percentage of the number recorded in the controls. Data were means of 12 counts ±SD. *P<0.01, **P<0.0005, compared to control (FIG. 3). In another set of experiments, cells were also treated for 24 and 48 h with FTS and collected for FACS analysis (FIG. 4). The apoptotic population of cells (indicated in the FACS analysis as sub-G1) was 3.8% at 24 h and 8.4% at 48 h in cells treated with 75 μM FTS, compared to 1.0% and 2.8%, respectively, in control cells (FIG. 4). […] Thus, FTS induced cell-cycle arrest in A549 cells, resulting in inhibition of cell growth.

CC(C)=CCC/C(C)=C/CC/C(C)=C/CSc1ccccc1C(=O)O [FTS, S-farnesylthiosalicylic acid]
IC50 (A549 cells [1]): 40 µM
reduction in K-Ras-GTP (mean±SD) (K-Ras-GTP; 25 μM FTS): 23±15.3%
reduction in K-Ras-GTP (mean±SD) (K-Ras-GTP; 50 μM FTS): 37±3.7%
reduction in K-Ras-GTP (mean±SD) (K-Ras-GTP; 75 μM FTS): 46±1.9%
effective concentration range for the reduction in K-Ras-GTP (K-Ras-GTP; A549 cells): 50 to 75 µM
effect on the total amount of Ras (K-Ras-GTP; A549 cells, various FTS concentrations): no significant effect
apoptotic population of cells (sub-G1) (A549 cells [2]; 24 h): 3.8%
apoptotic population of cells (sub-G1) (A549 cells [2]; 48 h): 8.4%
reduction in G1 population (A549 cells [2]; 24 h): 5.6%
reduction in G1 population (A549 cells [2]; 48 h): 19%
